The numbers were not newly measured in paper PMC3352981 (Bioorganic & medicinal chemistry letters, 2012), which cites them from elsewhere.

For data set [1], the system named is BoNT/A.
Data set [2] deals with BoNT/A. As to conditions: mouse.

As for `CC(C)(C)c1ccc(C=CC(=O)NO)cc1` [4-tert-butylcinnamyl hydroxamate], the “potency (in words)” value in data set [1] is given as “dramatic loss of potency”.

Take `O=C(/C=C/c1ccc(Cl)cc1Cl)NO` [Compound 1, 2,4-dichlorocinnamyl hydroxamic acid]: the in vivo activity entry in data set [2] is recorded as “marginal in vivo activity”.
